Experiment [1] has as its system acetylation levels of histone H3 (HDAC1 target) in DU145 cells. The experiment is described as follows: Western blot of histone H3 acetylation in DU145 cells. Format: cell-based, human. The settings on record: 24 h, 10 µM. As to the method:
The results corroborate the inhibitory activity of 17, 23, 25 and 27 at concentrations lower than 10 µM. […] HDACs contribution to CRPC is known[20] and the possibility to arrest CRPC proliferation by acting on HDAC targets is expanding in the scientific literature[21]^,[22]. After administration of the selected compounds for 24 h at 10 µM concentration, the effect on the acetylation levels of histone H3 and α-tubulin (respectively, HDAC1 and HDAC6 targets) was investigated. […] Lastly, in the same cell line, the anti-proliferative effect was measured in dose and time dependent manner (Figure S4).
Figure S3. Western blotting analysis of the tested and reference compounds SAHA and Tubastatin A on acetylation levels of histone H3 and α-tubulin in DU145 cells. GAPDH and H4 were used as a loading control. Densitometric values were analyzed using ImageJ Software and are reported on the top of bands as the ratio between loading control and acetylated target.
(1 picture or pasted object on this page, not shown here) […]
1.4 Western blot analysis
The prostate cancer cell line DU145 (ATCC) was grown in RPMI medium (Euroclone, Milan, Italy) with 10% fetal bovine serum (Euroclone), 2 mM L-glutamine (Euroclone), and antibiotics (100 U/mL penicillin, […] streptomycin) (Euroclone). Cells were stimulated with drugs for […]
Total Protein Extraction and western blot
After the induction with the test compounds at the indicated times and concentrations, DU145 cells were then harvested, washed with phosphate-buffered saline (PBS) (Euroclone), and lysed for 15 min at 4 °C in lysis extraction buffer with protease and phosphatase inhibitors (50 mM Tris -HCl pH 8.0, 150 mM NaCl, 1% NP40, 10 mM sodium fluoride, 0.1 mM sodium orthovanadate, […] phenylmethylsulfonyl fluoride 58 (PMSF), 20 g/mL aprotinin, […] leupeptin, […] antipain, 10 mM p -nitrophenyl phosphate, […] pepstatin A and 20 nM okada ic acid). Cells were vortexed then centrifuged at 13000 rpm for 30 min at 4 °C. Bradford assay (Biorad, Italy) was used to quantify protein concentration. […] The immune complexes were first detected with horseradish peroxidase-conjugated species-specific secondary antiserum (Bio-Rad Laboratories, Milan, Italy), and then by an enhanced chemiluminescence reaction (Bio-Rad Laboratories, Milan, Italy). […]
were harvested and washed twice with cold 1× PBS and lysed in Triton extraction buffer (TEB; PBS containing 0.5% Triton X 100 (v/v), 2 mM PMSF, and 0.02% (w/v) NaN3) for 10 min on ice, with gentle stirring. […] The samples were then centrifuged at 2000 rpm for 10 min at 4 °C; the concentration of protein in the supernatant was determined […]
using a Bradford assay (Bio-Rad, CA, USA). […] Semi-quantitative analysis was performed using ImageJ software. […]
Background: Immunoblotting shows a protein as a band on a membrane.

Experiment [2] concerns the target T1, HDAC6 (Homo sapiens, UniProt Q9UBN7).
T1 sequence (Q9UBN7 1-1215): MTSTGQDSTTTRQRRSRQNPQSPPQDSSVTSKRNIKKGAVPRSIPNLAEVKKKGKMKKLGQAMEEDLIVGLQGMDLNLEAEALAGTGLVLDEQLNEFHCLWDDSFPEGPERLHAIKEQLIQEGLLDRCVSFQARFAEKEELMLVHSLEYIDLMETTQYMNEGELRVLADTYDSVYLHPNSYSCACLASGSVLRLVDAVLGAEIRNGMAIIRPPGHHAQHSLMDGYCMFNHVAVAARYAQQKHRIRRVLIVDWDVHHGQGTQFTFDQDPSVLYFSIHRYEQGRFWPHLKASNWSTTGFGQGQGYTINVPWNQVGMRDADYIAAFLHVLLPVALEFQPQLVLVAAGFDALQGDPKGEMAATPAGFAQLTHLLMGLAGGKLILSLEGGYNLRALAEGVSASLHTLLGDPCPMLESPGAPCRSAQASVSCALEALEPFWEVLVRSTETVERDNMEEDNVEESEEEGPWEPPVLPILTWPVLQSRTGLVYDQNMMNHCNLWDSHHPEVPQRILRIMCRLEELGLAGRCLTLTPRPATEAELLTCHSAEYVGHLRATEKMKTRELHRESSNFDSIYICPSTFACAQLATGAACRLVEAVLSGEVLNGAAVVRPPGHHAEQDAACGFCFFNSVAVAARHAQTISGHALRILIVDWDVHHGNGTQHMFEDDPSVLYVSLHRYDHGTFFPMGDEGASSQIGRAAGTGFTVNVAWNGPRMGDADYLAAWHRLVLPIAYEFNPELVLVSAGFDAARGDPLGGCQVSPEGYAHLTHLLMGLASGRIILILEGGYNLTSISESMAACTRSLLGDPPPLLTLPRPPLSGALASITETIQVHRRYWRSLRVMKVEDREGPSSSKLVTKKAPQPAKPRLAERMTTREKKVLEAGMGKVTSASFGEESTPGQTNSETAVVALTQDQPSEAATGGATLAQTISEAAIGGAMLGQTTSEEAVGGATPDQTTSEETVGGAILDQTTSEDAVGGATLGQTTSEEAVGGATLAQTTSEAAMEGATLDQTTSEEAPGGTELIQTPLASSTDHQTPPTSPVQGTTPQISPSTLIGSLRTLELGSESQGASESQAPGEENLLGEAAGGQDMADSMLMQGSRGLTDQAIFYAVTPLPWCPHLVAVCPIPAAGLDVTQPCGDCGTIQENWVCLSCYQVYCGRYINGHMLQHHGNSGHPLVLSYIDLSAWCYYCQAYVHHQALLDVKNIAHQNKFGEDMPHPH
The experiment can be described thus: HDAC6 assay with acetylated p53 peptide (residues 379–382, RHKKAc-AMC) as substrate. It is filed as biochemical.

In experiment [3] the target is T1, HDAC6. The experiment can be described thus: In vitro HDAC6 fluorogenic enzymatic assay. Format: biochemical. Also noted: purchased BPS Bioscience #50076 (Fluorogenic Assay Kit). The settings on record: recombinant human HDAC6; dose-response 300 µM to 135 nM.

One may read the IC50 as the concentration at which inhibition is half-maximal.

Regarding `Oc1cc(-c2ccc(NCc3ccccc3)cc2)on1` [Compound 23], the “effect on acetylation levels of histone H3” value in experiment [1] is recorded as “no effect”. Also, the “concentration showing inhibitory activity on HDAC6” value in experiment [2] is recorded as “below 10 µM”. The half-inhibitory concentration (IC50) in experiment [3] was 0.7 µM.
On to `Oc1cc(-c2ccc3c(c2)OCO3)on1` [Compound 25], for which the “effect on acetylation levels of histone H3” value in experiment [1] is listed as “no effect”. Moreover, the “concentration showing inhibitory activity on HDAC6” value in experiment [2] is given as “below 10 µM”. In experiment [3], the IC50 stood at 1.5 µM.

Values taken from PMC8480759, “Inhibitors of histone deacetylase 6 based on a novel 3-hydroxy-isoxazole zinc binding group” (Journal of Enzyme Inhibition and Medicinal Chemistry, 2021).
